Measurements as given in ChEMBL document CHEMBL3994565 (Medchemcomm, 2016).
Active and inactive are the calls of the source. The rule behind the calls is not given here.

Experiments:
[1] = Cytotoxicity against MDCK cells assessed as cell viability at 100 uM after 40 hrs in presence of betulinic acid by CellTiter-Glo assay; assay type: cell-based, Canis lupus familiaris; conditions: dog, read-out: Activity
[2] = Cytotoxicity against MDCK cells assessed as cell viability at 100 uM after 40 hrs by CellTiter-Glo assay relative to control; assay type: cell-based, Canis lupus familiaris; conditions: dog, read-out: Activity
[3] = Binding affinity to recombinant Influenza virus hemagglutinin by surface plasmon resonance analysis; design: species or system unidentified influenza virus; conditions: read-out: Kd(app)
[4] = Antiviral activity against Influenza A virus (A/WSN/33(H1N1)) infected in MDCK cells assessed as inhibition of virus-induced cytopathic effect at 100 uM incubated for 40 hrs by CellTiter-Glo assay; assay type: functional, Influenza A virus (A/WSN/1933(H1N1))
[5] = system: Influenza A virus (A/WSN/1933(H1N1)); test: Inhibition of Influenza A virus (A/WSN/33(H1N1)) neuraminidase activity using 4-MUNANA as substrate incubated for 30 mins by fluorescence spectrophotometry relative to control
[6] = Selectivity index, ratio of CC50 against uninfected MDCK cells to IC50 against Influenza A virus (A/WSN/33(H1N1)) infected MDCK cells; assay type: toxicity, cell-based; conditions: dog; read-out: Ratio CC50/IC50
[7] = Antiviral activity against Influenza A virus (A/WSN/33(H1N1)) infected in MDCK cells assessed as inhibition of virus-induced cytopathic effect incubated for 40 hrs by CellTiter-Glo assay; assay type: functional, cell-based, Influenza A virus (A/WSN/1933(H1N1))
[8] = Cytotoxicity against MDCK cells assessed as decrease in cell viability after 40 hrs by CellTiter-Glo assay; assay type: cell-based, Canis lupus familiaris; conditions: dog
[9] = Cytotoxicity against MDCK cells assessed as cell viability at 100 uM after 40 hrs in presence of sialic acid by CellTiter-Glo assay; assay type: cell-based, Canis lupus familiaris; conditions: dog, read-out: Activity
[10] = system: Influenza A virus (A/WSN/1933(H1N1)); test: Antiviral activity against Influenza A virus (A/WSN/33(H1N1)) infected in MDCK cells assessed as inhibition of viral production after 2 hrs post-infection by plaque formation assay; assay type: functional, cell-based
[11] = Antiviral activity against Influenza A virus (A/WSN/33(H1N1)) infected in MDCK cells assessed as inhibition of viral production up to 2 hrs post-infection by plaque formation assay; assay type: functional, Influenza A virus (A/WSN/1933(H1N1))
[12] = target: Hemagglutinin (Influenza A virus) (UniProt B4URE7); test: Inhibition of Influenza A virus (A/WSN/33(H1N1)) hemagglutinin-mediated aggregation of chicken erythrocytes after 30 mins; conditions: Influenza A virus (A/WSN/1933(H1N1))
Sequence of Hemagglutinin (Influenza A virus) (B4URE7 as listed by the source): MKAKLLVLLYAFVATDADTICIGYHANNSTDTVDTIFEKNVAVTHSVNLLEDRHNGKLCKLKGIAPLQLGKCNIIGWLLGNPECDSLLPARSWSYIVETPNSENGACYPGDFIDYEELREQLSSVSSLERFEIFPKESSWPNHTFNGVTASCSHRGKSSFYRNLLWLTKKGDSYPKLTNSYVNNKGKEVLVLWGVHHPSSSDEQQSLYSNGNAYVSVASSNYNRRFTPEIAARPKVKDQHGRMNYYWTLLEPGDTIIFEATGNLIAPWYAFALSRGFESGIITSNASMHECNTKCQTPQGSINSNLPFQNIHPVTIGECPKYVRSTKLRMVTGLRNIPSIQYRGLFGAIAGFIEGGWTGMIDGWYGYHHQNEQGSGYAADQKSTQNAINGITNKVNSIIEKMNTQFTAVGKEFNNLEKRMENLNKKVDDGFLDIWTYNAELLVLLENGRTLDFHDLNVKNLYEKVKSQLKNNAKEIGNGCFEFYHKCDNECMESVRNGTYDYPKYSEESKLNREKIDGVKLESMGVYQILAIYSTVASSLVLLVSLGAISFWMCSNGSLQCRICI

[13] = Cytotoxicity against MDCK cells assessed as cell viability at 10 uM after 40 hrs by CellTiter-Glo assay; assay type: cell-based, Canis lupus familiaris; conditions: dog, read-out: Activity
[14] = Antiviral activity against Influenza A virus (A/WSN/33(H1N1)) infected in MDCK cells assessed as inhibition of virus-induced cytopathic effect at 10 uM incubated for 40 hrs by CellTiter-Glo assay; assay type: functional, Influenza A virus (A/WSN/1933(H1N1))
[15] = Antiviral activity against Influenza A virus (A/WSN/33(H1N1)) infected in MDCK cells assessed as inhibition of virus-induced cytopathic effect at 50 uM incubated for 40 hrs by CellTiter-Glo assay; assay type: functional, Influenza A virus (A/WSN/1933(H1N1))
[16] = Cytotoxicity against MDCK cells assessed as cell viability at 50 uM after 40 hrs by CellTiter-Glo assay; assay type: cell-based, Canis lupus familiaris; conditions: dog, read-out: Activity

Compound | viability at 40 h, 100 µM [2] [%] | inhibition at 100 µM [4] [%] | selectivity ratio [6] | IC50 [7] [µM] | CC50 at 40 h [8] [µM] | also measured
CC(=O)N[C@H]1[C@H]([C@H](O)[C@H](O)CO)O[C@@](O)(C(=O)O)C[C@@H]1O | 96.4 | 2 |  |  |  | viability at 40 h, 100 µM [1]: 20.3%; Kd [3]: 692 µM
C=C(C)[C@@H]1CC[C@]2(C(=O)OCCO[C@]3(C(=O)OC)C[C@H](OC(C)=O)[C@@H](NC(C)=O)[C@H]([C@H](OC(C)=O)[C@@H](COC(C)=O)OC(C)=O)O3)CC[C@]3(C)[C@H](CC[C@@H]4[C@@]5(C)CC[C@H](O)C(C)(C)[C@@H]5CC[C@]43C)[C@@H]12 | 80.7 | 86.6 | 2.9 | 61.3 | 178 | inhibition [5]: inactive
COC(=O)[C@@]1(OCCn2cc(CNC(=O)[C@]34CCC(C)(C)C[C@@H]3C3=CC[C@@H]5[C@@]6(C)CC[C@H](O)C(C)(C)[C@@H]6CC[C@@]5(C)[C@]3(C)CC4)nn2)C[C@H](OC(C)=O)[C@@H](NC(C)=O)[C@H]([C@H](OC(C)=O)[C@@H](COC(C)=O)OC(C)=O)O1 | 97.1 | 57.8 | > 5.2 | 95.2 | > 500 | 
C=C(C)[C@@H]1CC[C@]2(C(=O)O)CC[C@]3(C)[C@H](CC[C@@H]4[C@@]5(C)CC[C@H](O)C(C)(C)[C@@H]5CC[C@]43C)[C@@H]12 [BETULINIC ACID] | 22.8 |  |  |  |  | viability at 40 h, 100 µM [9]: 20.3%; Kd [3]: 30 µM
C=C(C)[C@@H]1CC[C@]2(C(=O)OCCO[C@]3(C(=O)OC)C[C@H](O)[C@@H](NC(C)=O)[C@H]([C@H](O)[C@H](O)CO)O3)CC[C@]3(C)[C@H](CC[C@@H]4[C@@]5(C)CC[C@H](O)C(C)(C)[C@@H]5CC[C@]43C)[C@@H]12 | 98.3 | 94.8 | > 12.1 | 41.2 | > 500 | inhibition [10]: inactive; inhibition (INH) [11]: >75%; inhibition [5]: inactive; inhibition [12]: Dose-dependent effect; Kd [3]: 17 µM
COc1cc(/C=C/C(=O)CC(=O)/C=C/c2ccc(O)c(OC)c2)ccc1O [CURCUMIN] |  |  | 7.2 | 6.7 | 48.3 | viability at 40 h, 10 µM [13]: 98.7%; inhibition at 10 µM [14]: 69.3%
C=C(C)[C@@H]1CC[C@]2(C(=O)NCc3cn(CCO[C@]4(C(=O)OC)C[C@H](OC(C)=O)[C@@H](NC(C)=O)[C@H]([C@H](OC(C)=O)[C@@H](COC(C)=O)OC(C)=O)O4)nn3)CC[C@]3(C)[C@H](CC[C@@H]4[C@@]5(C)CC[C@H](O)C(C)(C)[C@@H]5CC[C@]43C)[C@@H]12 | 105 | 67.6 | > 6.3 | 78.3 | > 500 | 
COC(=O)[C@@]1(N=[N+]=[N-])C[C@H](OC(C)=O)[C@@H](NC(C)=O)[C@H]([C@H](OC(C)=O)[C@@H](COC(C)=O)OC(C)=O)O1 | 100 | 1 |  |  |  | 
COC(=O)[C@@]1(OCCn2cc(CNC(=O)[C@]34CCC(C)(C)C[C@@H]3C3=CC[C@@H]5[C@@]6(C)CC[C@H](O)C(C)(C)[C@@H]6CC[C@@]5(C)[C@]3(C)CC4)nn2)C[C@H](O)[C@@H](NC(C)=O)[C@H]([C@H](O)[C@H](O)CO)O1 | 107 | 6.7 |  |  |  | 
CCOC(=O)C1=C[C@@H](OC(CC)CC)[C@H](NC(C)=O)[C@@H](N)C1 [OSELTAMIVIR] |  |  | > 10.8 | 46.5 | > 500 | inhibition at 50 µM [15]: 72.6%; viability at 40 h, 50 µM [16]: 98.5%
COC(=O)[C@@]1(OCCN=[N+]=[N-])C[C@H](OC(C)=O)[C@@H](NC(C)=O)[C@H]([C@H](OC(C)=O)[C@@H](COC(C)=O)OC(C)=O)O1 | 100 | 4.3 |  |  |  | 
COC(=O)[C@@]1(n2cc(CNC(=O)[C@]34CCC(C)(C)C[C@@H]3C3=CC[C@@H]5[C@@]6(C)CC[C@H](O)C(C)(C)[C@@H]6CC[C@@]5(C)[C@]3(C)C[C@H]4O)nn2)C[C@H](O)[C@@H](NC(C)=O)[C@H]([C@H](O)[C@H](O)CO)O1 | 104 | -3.6 |  |  |  | 
